Laboratory results from the NIST ThermoML archive (doi:10.1016/j.tca.2004.07.014).

What was measured:
[1] = 303.15 K, 101.3 kPa, Liquid; for viscosity: Capillary tube (Ostwald / Ubbelohde) method; for speed of sound: Linear variable-path acoustic interferometer
[2] = xn = mol fraction of the nth substance listed; conditions: 303.15 K, 101.3 kPa, Liquid; for speed of sound: Linear variable-path acoustic interferometer

CCOC(=O)CC(=O)OCC [diethyl 1,3-propanedioate]
[1]
Conditions	mass density [kg/m3]	speed of sound [m/s]	viscosity [mPa·s]
–	1043.23	1274	1.721

CCOC(=O)CC(=O)OCC [diethyl 1,3-propanedioate] + ClC(Cl)(Cl)Cl
[2]
Conditions	mass density [kg/m3]	speed of sound [m/s]	viscosity [mPa·s]
x1 = 0.1173	1480.36	949	0.857
x1 = 0.2031	1419.02	982	0.877
x1 = 0.2999	1356.61	1018	0.918
x1 = 0.4623	1265.6	1080	1.002
x1 = 0.5648	1215.59	1120	1.084
x1 = 0.6579	1174.08	1154	1.167
x1 = 0.7478	1136.91	1185	1.272
x1 = 0.8311	1104.69	1216	1.388
x1 = 0.9189	1072.19	1247	1.544
x1 = 1	1043.23	1274	1.721

CCOC(=O)CC(=O)OCC [diethyl 1,3-propanedioate] + ClC(Cl)Cl
[2]
Conditions	mass density [kg/m3]	speed of sound [m/s]	viscosity [mPa·s]
x1 = 0.0968	1399.36	999	0.533
x1 = 0.2004	1334.53	1031	0.568
x1 = 0.3089	1276.4	1065	0.622
x1 = 0.4122	1228.62	1097	0.692
x1 = 0.5385	1178.25	1136	0.808
x1 = 0.6125	1151.99	1159	0.891
x1 = 0.7225	1116.7	1192	1.05
x1 = 0.8156	1089.85	1220	1.226
x1 = 0.9071	1065.78	1246	1.444

CCOC(=O)C(Br)C(=O)OCC [diethyl bromomalonate]
[1]
Conditions	mass density [kg/m3]	speed of sound [m/s]	viscosity [mPa·s]
–	1399.18	1166	3.614

CCOC(=O)C(Br)C(=O)OCC [diethyl bromomalonate] + ClC(Cl)(Cl)Cl
[2]
Conditions	mass density [kg/m3]	speed of sound [m/s]	viscosity [mPa·s]
x1 = 0.1001	1552.35	944	1.012
x1 = 0.1992	1531.61	980	1.207
x1 = 0.3007	1512.21	1012	1.433
x1 = 0.4088	1492.99	1047	1.705
x1 = 0.4988	1478.09	1072	1.948
x1 = 0.5999	1462.1	1098	2.255
x1 = 0.699	1446.77	1121	2.571
x1 = 0.8988	1415.72	1155	3.25
x1 = 1	1399.18	1166	3.614
